PubChem BioAssay AID328 (DTP/NCI, 2004)
Where “and” joins values, the source holds several entries; their conditions need not be identical. Equal entries are not always repeated. Inconclusive results and toxic doses are left out.

Test system: BDF1 mice, P388 leukemia ip, median survival T/C
Assay: NCI In Vivo Anticancer Drug Screen. Data for tumor model P388 Leukemia (intraperitoneal) in B6D2F1 (BDF1) mice
Details: endpoint: median survival time, higher = longer survival
How it was run: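 Each value expresses how treatment altered survival: treated-mouse outcome over vehicle-mouse outcome, both groups bearing the transplanted tumour.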

[1] = dose: 12.5 mg/kg/injection, schedule: Q01DX009 (ip), vehicle: saline with Tween-80
[2] = dose: 100.0 mg/kg/injection, schedule: Q04DX003 (ip), vehicle: saline
[3] = dose: 200.0 mg/kg/injection, schedule: Q04DX003 (ip), vehicle: saline
[4] = dose: 50.0 mg/kg/injection, schedule: Q01DX009 (ip), vehicle: saline with Tween-80
[5] = dose: 100.0 mg/kg/injection, schedule: Q01DX009 (ip), vehicle: saline with Tween-80
[6] = dose: 200.0 mg/kg/injection, schedule: Q01DX009 (ip), vehicle: saline with Tween-80
[7] = dose: 400.0 mg/kg/injection, schedule: Q01DX009 (ip), vehicle: saline with Tween-80

## COc1cc(NS(C)(=O)=O)ccc1Nc1c2ccc(Cl)cc2nc2c(OC)cccc12
dose: 0.8 mg/kg/injection, schedule: Q01DX005 (iv), vehicle: water
  T/C: 106 % of control
dose: 0.8 mg/kg/injection, schedule: Q04DX003 (iv), vehicle: water
  T/C: 105 % of control
dose: 1.6 mg/kg/injection, schedule: Q01DX005 (iv), vehicle: water
  T/C: 99 % of control
dose: 1.6 mg/kg/injection, schedule: Q04DX003 (iv), vehicle: water
  T/C: 100 % of control
dose: 3.3 mg/kg/injection, schedule: Q01DX005 (iv), vehicle: water
  T/C: 114 % of control
dose: 3.3 mg/kg/injection, schedule: Q04DX003 (iv), vehicle: water
  T/C: 109 % of control
dose: 6.5 mg/kg/injection, schedule: Q04DX003 (iv), vehicle: water
  T/C: 124 % of control
[1]
  T/C: 95 % of control
dose: 26.0 mg/kg/injection, schedule: Q04DX003 (iv), vehicle: water
  T/C: 250 % of control

## CC(C)=CCCC(C)=C(C#N)C#N
dose: 25.0 mg/kg/injection, schedule: Q04DX003 (ip), vehicle: saline with Tween-80
  T/C: 107 % of control
dose: 50.0 mg/kg/injection, schedule: Q04DX003 (ip), vehicle: saline with Tween-80
  T/C: 105 % of control
dose: 100.0 mg/kg/injection, schedule: Q04DX003 (ip), vehicle: saline with Tween-80
  T/C: 107 % of control

## OCCCN1CNC(=S)NC1
dose: 100.0 mg/kg/injection, schedule: Q01DX009 (ip), vehicle: saline
  T/C: 108 % of control
dose: 200.0 mg/kg/injection, schedule: Q01DX009 (ip), vehicle: saline
  T/C: 108 % of control

## COc1ccc(OC(=O)N2C=Cc3ccccc3C2C#N)cc1 (configuration not stated)
dose: 50.0 mg/kg/injection, schedule: Q04DX003 (ip), vehicle: saline
  T/C: 95 % of control
[2]
  T/C: 100 % of control
[3]
  T/C: 112 % of control

## NC(c1ccccc1)S(=O)(=O)O (configuration not stated)
[4]
  T/C: 115 % of control
[5]
  T/C: 121 % of control
[6]
  T/C: 93 % of control
[7]
  T/C: 95 % of control

## N#Cc1sc2ccccc2c1CBr
dose: 12.5 mg/kg/injection, schedule: Q01DX009 (ip), vehicle: Klucel (hydroxypropylcellulose) (HPC)
  T/C: 104 % of control
dose: 18.75 mg/kg/injection, schedule: Q04DX003 (ip), vehicle: Klucel (hydroxypropylcellulose) (HPC)
  T/C: 108 % of control
dose: 25.0 mg/kg/injection, schedule: Q01DX009 (ip), vehicle: Klucel (hydroxypropylcellulose) (HPC)
  T/C: 108 % of control
dose: 37.5 mg/kg/injection, schedule: Q04DX003 (ip), vehicle: Klucel (hydroxypropylcellulose) (HPC)
  T/C: 108 % of control

## CC(C)(C)c1ccc(OCCCOc2ccc(C(=O)O)cc2)cc1
dose: 12.5 mg/kg/injection, schedule: Q04DX003 (ip), vehicle: saline sonified
  T/C: 95 % of control
dose: 25.0 mg/kg/injection, schedule: Q04DX003 (ip), vehicle: saline sonified
  T/C: 95 % of control
dose: 50.0 mg/kg/injection, schedule: Q04DX003 (ip), vehicle: saline sonified
  T/C: 91 % of control

## Cc1nn(CCO)c(C)c1N=[N+]([O-])c1c(C)nn(CCO)c1C
dose: 15.0 mg/kg/injection, schedule: Q01DX009 (ip), vehicle: saline with Tween-80
  T/C: 114 % of control

## CC1(c2ccc(Cl)s2)C(=O)N(Cl)C(=O)N1Cl (configuration not stated)
dose: 6.25 mg/kg/injection, schedule: Q01DX009 (ip), vehicle: saline with Tween-80
  T/C: 112 % of control
[1]
  T/C: 103 % of control and 106 % of control
dose: 25.0 mg/kg/injection, schedule: Q01DX009 (ip), vehicle: saline with Tween-80
  T/C: 106 % of control and 110 % of control
dose: 25.0 mg/kg/injection, schedule: Q04DX003 (ip), vehicle: water
  T/C: 108 % of control
[4]
  T/C: 104 % of control and 120 % of control (2×)
dose: 50.0 mg/kg/injection, schedule: Q04DX003 (ip), vehicle: water
  T/C: 95 % of control
[5]
  T/C: 95 % of control and 115 % of control
dose: 100.0 mg/kg/injection, schedule: Q04DX003 (ip), vehicle: water
  T/C: 102 % of control

## N#CSc1ncnc2nc[nH]c12
dose: 3.0 mg/kg/injection, schedule: Q01DX009 (ip), vehicle: alkali diluted with saline
  T/C: 110 % of control
dose: 3.0 mg/kg/injection, schedule: Q04DX003 (ip), vehicle: alkali diluted with saline
  T/C: 100 % of control
dose: 4.0 mg/kg/injection, schedule: Q01DX009 (ip), vehicle: alkali diluted with saline
  T/C: 95 % of control
dose: 6.0 mg/kg/injection, schedule: Q01DX009 (ip), vehicle: alkali diluted with saline
  T/C: 116 % of control
dose: 6.0 mg/kg/injection, schedule: Q04DX003 (ip), vehicle: alkali diluted with saline
  T/C: 95 % of control
dose: 9.0 mg/kg/injection, schedule: Q01DX009 (ip), vehicle: alkali diluted with saline
  T/C: 95 % of control
dose: 12.0 mg/kg/injection, schedule: Q01DX009 (ip), vehicle: alkali diluted with saline
  T/C: 120 % of control
dose: 12.0 mg/kg/injection, schedule: Q04DX003 (ip), vehicle: alkali diluted with saline
  T/C: 100 % of control and 113 % of control

## CC(=O)Oc1c(Cl)c(Cl)c(C#N)c(Cl)c1C#N
[4]
  T/C: 111 % of control
[5]
  T/C: 122 % of control

## c1ccc([P+](c2ccccc2)(c2ccccc2)c2ccccc2)cc1
dose: 0.06 mg/kg/injection, schedule: Q01DX009 (ip), vehicle: saline
  T/C: 116 % of control
dose: 0.09 mg/kg/injection, schedule: Q01DX009 (ip), vehicle: saline
  T/C: 122 % of control
dose: 0.13 mg/kg/injection, schedule: Q01DX009 (ip), vehicle: saline
  T/C: 100 % of control
dose: 0.2 mg/kg/injection, schedule: Q01DX009 (ip), vehicle: saline
  T/C: 100 % of control
dose: 0.3 mg/kg/injection, schedule: Q01DX009 (ip), vehicle: saline
  T/C: 104 % of control
dose: 0.4 mg/kg/injection, schedule: Q01DX009 (ip), vehicle: saline
  T/C: 150 % of control
dose: 0.41 mg/kg/injection, schedule: Q01DX009 (ip), vehicle: saline
  T/C: 165 % of control
dose: 0.44 mg/kg/injection, schedule: Q01DX009 (ip), vehicle: saline
  T/C: 120 % of control
dose: 0.62 mg/kg/injection, schedule: Q01DX009 (ip), vehicle: saline
  T/C: 150 % of control and 163 % of control and 170 % of control
dose: 0.66 mg/kg/injection, schedule: Q01DX009 (ip), vehicle: saline
  T/C: 171 % of control
dose: 0.67 mg/kg/injection, schedule: Q04DX003 (ip), vehicle: saline
  T/C: 118 % of control
dose: 0.93 mg/kg/injection, schedule: Q01DX009 (ip), vehicle: saline
  T/C: 150 % of control and 165 % of control
dose: 1.0 mg/kg/injection, schedule: Q01DX009 (ip), vehicle: Klucel (hydroxypropylcellulose) (HPC)
  T/C: 155 % of control
dose: 1.0 mg/kg/injection, schedule: Q01DX009 (ip), vehicle: saline
  T/C: 180 % of control
dose: 1.35 mg/kg/injection, schedule: Q04DX003 (ip), vehicle: saline
  T/C: 122 % of control
dose: 1.5 mg/kg/injection, schedule: Q01DX009 (ip), vehicle: Klucel (hydroxypropylcellulose) (HPC)
  T/C: 158 % of control
dose: 1.5 mg/kg/injection, schedule: Q01DX009 (ip), vehicle: saline
  T/C: 154 % of control and 164 % of control
dose: 2.0 mg/kg/injection, schedule: Q01DX009 (ip), vehicle: Klucel (hydroxypropylcellulose) (HPC)
  T/C: 157 % of control and 163 % of control
dose: 2.25 mg/kg/injection, schedule: Q01DX009 (ip), vehicle: saline
  T/C: 164 % of control
dose: 3.2 mg/kg/injection, schedule: Q01DX009 (ip), vehicle: Klucel (hydroxypropylcellulose) (HPC)
  T/C: 175 % of control
dose: 4.0 mg/kg/injection, schedule: Q01DX009 (ip), vehicle: Klucel (hydroxypropylcellulose) (HPC)
  T/C: 164 % of control
dose: 4.0 mg/kg/injection, schedule: Q04DX003 (ip), vehicle: saline
  T/C: 158 % of control and 165 % of control
dose: 7.5 mg/kg/injection, schedule: Q01DX009 (ip), vehicle: Klucel (hydroxypropylcellulose) (HPC)
  T/C: 89 % of control and 100 % of control

## ClC1=CCCCC1
dose: 150.0 mg/kg/injection, schedule: Q01DX009 (ip), vehicle: saline
  T/C: 120 % of control
dose: 225.0 mg/kg/injection, schedule: Q01DX009 (ip), vehicle: saline
  T/C: 115 % of control
dose: 335.0 mg/kg/injection, schedule: Q01DX009 (ip), vehicle: saline
  T/C: 120 % of control

## COc1cc(C(=O)NCC2(C)OC3(OC(=O)C2O)C(=O)N/C(=C(\C=O)C(C)=O)OC3C(O)C2CN2C(C)=O)c2cccc(C)c2c1 (configuration not stated)
dose: 0.05 mg/kg/injection, schedule: Q01DX010 (ip), vehicle: alkali diluted with saline
  T/C: 245 % of control
dose: 0.1 mg/kg/injection, schedule: Q01DX010 (ip), vehicle: alkali diluted with saline
  T/C: 300 % of control
dose: 12.5 micrograms/kg/injection, schedule: Q01DX010 (ip), vehicle: other
  T/C: 180 % of control
dose: 25.0 micrograms/kg/injection, schedule: Q01DX010 (ip), vehicle: other
  T/C: 155 % of control
dose: 50.0 micrograms/kg/injection, schedule: Q01DX010 (ip), vehicle: other
  T/C: 195 % of control

## CCN(CC)C(=O)Cn1cc(F)c(NC(C)=O)nc1=O
[5]
  T/C: 90 % of control
[2]
  T/C: 95 % of control
[6]
  T/C: 105 % of control
[3]
  T/C: 109 % of control
[7]
  T/C: 110 % of control
dose: 400.0 mg/kg/injection, schedule: Q04DX003 (ip), vehicle: saline
  T/C: 113 % of control

## OCC1CSC2(CCCCC2)N1 (configuration not stated)
[4]
  T/C: 105 % of control
[5]
  T/C: 105 % of control
[6]
  T/C: 93 % of control
